In patent publication US20250099455A1, “TREATMENT FOR CONGESTIVE HEART FAILURE” (FibroGen, Inc., priority 2022, published 2025):
Where two headings read alike, the source gives them in different places.

Columns and labels:
[1] = Tissue distribution in mice; format: in vivo, mouse; conditions: for Compound of Formula 1 (μg/mL or μg/g): male Swiss Webster mice, single iv dose 60 mg/kg; for Kp at 4 h / Kp at 8 h: male, Swiss Webster, mouse, mice, single iv 60 mg/kg, read-out: Tissue/plasma ratio
Description: • N=3/time point, male Swiss Webster mice, single iv dose, 60 mg/kg Compound of Formula I

[2] = test system: congestive heart failure following myocardial ischemia; assay: Acute myocardial ischemia induced HF, dose response / MED; format: in vivo, rat
Description: • Male Sprague Dawley rats • Ligation of left coronary artery for 30 minutes followed by reperfusion • Post-ligation recovery for 28 days • Cardiac function 28 days after ischemia-reperfusion using a Millar pressure-volume catheter inserted in the left ventricle via the carotid artery • Record pressure-volume loops over several cardiac cycles and derived cardiac function parameters Dose response with the compound of Formula I on cardiac function in congestive heart failure (CHF) was studied by inducing CHF following myocardial ischemia for the determination of Minimum Effective Dose (MED) 2 mg/kg, as shown in FIGS. 10A and 10B.

[3] = molecular target: PHD2 (Homo sapiens (Human), UniProt Q9GZT9); assay: HIF-PH assay (14CO2 capture), PHD2; format: biochemical
PHD2, sequence (Q9GZT9 whole entry, species assumed, the tested form may be a part): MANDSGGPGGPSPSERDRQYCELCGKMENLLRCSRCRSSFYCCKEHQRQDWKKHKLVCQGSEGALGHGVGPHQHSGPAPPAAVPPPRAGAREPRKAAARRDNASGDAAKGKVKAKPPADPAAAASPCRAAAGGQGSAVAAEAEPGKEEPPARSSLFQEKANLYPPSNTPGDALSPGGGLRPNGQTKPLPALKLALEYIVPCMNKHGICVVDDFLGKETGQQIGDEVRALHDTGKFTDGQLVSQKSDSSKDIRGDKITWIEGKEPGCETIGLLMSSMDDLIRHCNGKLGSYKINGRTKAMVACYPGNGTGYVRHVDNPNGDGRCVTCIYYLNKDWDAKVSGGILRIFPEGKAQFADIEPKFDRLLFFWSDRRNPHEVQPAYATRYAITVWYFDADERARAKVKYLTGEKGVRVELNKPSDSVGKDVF
Excerpt: The selectivity profile for the compound of Formula I can be determined using, for example, any assay familiar and commonly accessible to those skilled in the art, e.g., the following HIF-PH assay. Ketoglutaric acid α-[1-^14C]-sodium salt, alpha-ketoglutaric acid sodium salt, and HPLC purified peptide may be obtained from commercial sources, e.g., Perkin-Elmer (Wellesley MA), Sigma-Aldrich, and SynPep Corp. (Dublin CA), respectively. Peptides for use in the assay may be fragments of HIFα as described above or as disclosed in International Publication WO 2005/118836, incorporated by reference herein. HIF-PH, e.g., PHD1 (EGLN2) or PHD2 (EGLN1), can be expressed in, e.g., insect Hi5 cells, and partially purified, e.g., through a SP ion exchange chromatography column. Enzyme activity is determined by capturing ^14CO2 using an assay described by Kivirikko and Myllyla (1982, Methods Enzymol. 82:245-304). […] The peptide-dependent percent turnover is calculated by subtracting percent turnover in the absence of peptide from percent turnover in the presence of substrate peptide. Percent inhibition and IC50 are calculated using peptide-dependent percent turnover at given inhibitor concentrations. […] IC50 of test compound for PHD1 and for PHD2 and/or PHD3 can be readily determined using the above method, and used to assess the selectivity of the compound for inhibition of PHD1.

[4] = 0.2, 0.6, 2 mg/kg daily, 4 weeks, effect at 2 mg/kg

Compound of Formula 1 (μg/mL or μg/g) ([1]; Colon, 4 h post dose): 12.9 ± 2.7 μg/mL or μg/g | Compound of Formula 1 (μg/mL or μg/g) ([1]; Colon, 8 h post dose): 16.1 ± 6.3 μg/mL or μg/g | Compound of Formula 1 (μg/mL or μg/g) ([1]; Duodenum, 4 h post dose): 19.1 ± 5.6 μg/mL or μg/g | Compound of Formula 1 (μg/mL or μg/g) ([1]; Duodenum, 8 h post dose): 21.8 ± 4.1 μg/mL or μg/g | Compound of Formula 1 (μg/mL or μg/g) ([1]; Heart, 4 h post dose): 10.4 ± 4.6 μg/mL or μg/g | Compound of Formula 1 (μg/mL or μg/g) ([1]; Heart, 8 h post dose): 7.4 ± 2.1 μg/mL or μg/g | Compound of Formula 1 (μg/mL or μg/g) ([1]; Kidney, 4 h post dose): 9.2 ± 3.4 μg/mL or μg/g | Compound of Formula 1 (μg/mL or μg/g) ([1]; Kidney, 8 h post dose): 7.2 ± 1.9 μg/mL or μg/g | Compound of Formula 1 (μg/mL or μg/g) ([1]; Liver, 4 h post dose): 40.2 ± 7.2 μg/mL or μg/g | Compound of Formula 1 (μg/mL or μg/g) ([1]; Liver, 8 h post dose): 38.4 ± 4.6 μg/mL or μg/g | Compound of Formula 1 (μg/mL or μg/g) ([1]; Plasma, 4 h post dose): 56.6 ± 10.6 μg/mL or μg/g | Compound of Formula 1 (μg/mL or μg/g) ([1]; Plasma, 8 h post dose): 43.3 ± 11.0 μg/mL or μg/g | Kp at 4 h ([1]; Colon, 4 h post dose): 0.23 | Kp at 8 h ([1]; Colon, 8 h post dose): 0.37 | Kp at 4 h ([1]; Duodenum, 4 h post dose): 0.34 | Kp at 8 h ([1]; Duodenum, 8 h post dose): 0.5 | Kp at 4 h ([1]; Heart, 4 h post dose): 0.18 | Kp at 8 h ([1]; Heart, 8 h post dose): 0.17 | Kp at 4 h ([1]; Kidney, 4 h post dose): 0.16 | Kp at 8 h ([1]; Kidney, 8 h post dose): 0.17 | Kp at 4 h ([1]; Liver, 4 h post dose): 0.71 | Kp at 8 h ([1]; Liver, 8 h post dose): 0.89 | Kp at 4 h ([1]; Plasma, 4 h post dose): 1 | Kp at 8 h ([1]; Plasma, 8 h post dose): 1 | IC50 ([3]; Table 1): 20.4 µM | IC50 ([3]; additional experiment, Table 1A): 16.9 µM
SMILES: CC(C)(CC(=O)O)NC(=O)c1nc(C#N)c2cc(Oc3ccccc3)ccc2c1O [Formula I, 3-[(1-cyano-4-hydroxy-7-phenoxy-isoquinoline-3-carbonyl)-amino]-3-methyl-butyric acid]
cardiac hypertrophy [2, 4]: Significant reduction in cardiac | diastolic function [2, 4]: hypertrophy and improved systolic | systolic function [2, 4]: hypertrophy and improved systolic | Minimum Effective Dose (MED) ([2]; cardiac function in CHF following myocardial ischemia): 2 mg/kg
